Values after ≈ are worked out from the molar mass of the structure shown. One block for each compound: values may come before it.
Tests used:
Assay in all cases: in vitro antibacterial evaluation, MIC by broth dilution
Type in all cases: cell-based
[1] = test system: Enterococcus sp.; conditions: broth dilution, 18 hours at 35° C.
Summary of the method: (§1)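 Following National Committee for Clinical Laboratory Standards recommendations (M7-A2), susceptibility was measured by dilution in Muller-Hinton II […]. Bacteria were seeded at 5×10^5 CFU/mL against compound concentrations from 64 down to 0.06 μg/mL.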

[2] = test system: Staphylococcus sp.; conditions: broth dilution, 18 hours at 35° C.; for MIC Staphylococcus aureus (ATCC 29213): strain ATCC 29213; for MIC Staphylococcus aureus (GC 1131): strain GC 1131; for MIC Staphylococcus aureus (GC 3051): strain GC 3051; for MIC Staphylococcus aureus (GC 3053): strain GC 3053; for MIC Staphylococcus aureus (GC 4541): strain GC 4541; for MIC Staphylococcus aureus (GC 4542): strain GC 4542; for MIC Staphylococcus aureus (GC 4544): strain GC 4544; for MIC Staphylococcus aureus (GC 4545): strain GC 4545
Summary of the method: as §1

[3] = test system: Streptococcus sp.; conditions: broth dilution, 18 hours at 35° C.
Summary of the method: as §1

[4] = test system: Escherichia coli; conditions: 18 hours at 35° C.
Summary of the method: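 Broth dilution in Muller-Hinton II medium per NCCLS standard M7-A2, with an inoculum of 5×10^5 CFU/mL and antibiotic tested over 64-0.06 μg/mL. MIC was taken as the lowest concentration inhibiting visible growth.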

[5] = Enterococcus faecalis (ATCC 29212)
[6] = Enterococcus faecalis (GC 4552)
[7] = Enterococcus faecalis (GC 4553)
[8] = Enterococcus faecalis (GC 4554)
[9] = Enterococcus faecalis (GC 6189)

- MIC Enterococcus avium (GC 4558) ([1]; Enterococcus avium (GC 4558)): 4 µg/mL (≈ 2.56 µM)
- MIC Enterococcus faecalis (ATCC 29212) [1, 5]: 16 µg/mL (≈ 10.2 µM)
- MIC Enterococcus faecalis (GC 4552) [1, 6]: 16 µg/mL (≈ 10.2 µM)
- MIC Enterococcus faecalis (GC 4553) [1, 7]: 8 µg/mL (≈ 5.12 µM)
- MIC Enterococcus faecalis (GC 4554) [1, 8]: 32 µg/mL (≈ 20.5 µM)
- MIC Enterococcus faecalis (GC 6189) [1, 9]: 16 µg/mL (≈ 10.2 µM)
- MIC Enterococcus faecium (GC 2243) ([1]; Enterococcus faecium (GC 2243)): 8 µg/mL (≈ 5.12 µM)
- MIC Enterococcus faecium (GC 4556) ([1]; Enterococcus faecium (GC 4556)): 16 µg/mL (≈ 10.2 µM)
- MIC Enterococcus faecium (GC 4557) ([1]; Enterococcus faecium (GC 4557)): 2 µg/mL (≈ 1.28 µM)
- MIC Enterococcus avium (GC 4558) [1]: 4 µg/mL (≈ 2.56 µM)
- MIC Enterococcus faecalis (ATCC 29212) [1]: 16 µg/mL (≈ 10.2 µM)
- MIC Enterococcus faecalis (GC 2242) [1]: 16 µg/mL (≈ 10.2 µM)
- MIC Enterococcus faecalis (GC 2691) [1]: 16 µg/mL (≈ 10.2 µM)
- MIC Enterococcus faecalis (GC 3059) [1]: 16 µg/mL (≈ 10.2 µM)
- MIC Enterococcus faecalis (GC 4552) [1]: 16 µg/mL (≈ 10.2 µM)
- MIC Enterococcus faecalis (GC 4553) [1]: 8 µg/mL (≈ 5.12 µM)
- MIC Enterococcus faecalis (GC 4554) [1]: 32 µg/mL (≈ 20.5 µM)
- MIC Enterococcus faecalis (GC 6189) [1]: 16 µg/mL (≈ 10.2 µM)
- MIC Enterococcus faecium (GC 2243) [1]: 8 µg/mL (≈ 5.12 µM)
- MIC Enterococcus faecium (GC 4556) [1]: 16 µg/mL (≈ 10.2 µM)
- MIC Enterococcus faecium (GC 4557) [1]: 2 µg/mL (≈ 1.28 µM)
- MIC Enterococcus faecalis (GC 2242) ([1]; strain GC 2242): 16 µg/mL (≈ 10.2 µM)
- MIC Enterococcus faecalis (GC 2691) ([1]; strain GC 2691): 16 µg/mL (≈ 10.2 µM)
- MIC Enterococcus faecalis (GC 3059) ([1]; strain GC 3059): 16 µg/mL (≈ 10.2 µM)
- MIC Staphylococcus aureus (ATCC 29213) [2]: 8 µg/mL (≈ 5.12 µM)
- MIC Staphylococcus aureus (GC 1131) [2]: 16 µg/mL (≈ 10.2 µM)
- MIC Staphylococcus aureus (GC 3051) [2]: 8 µg/mL (≈ 5.12 µM)
- MIC Staphylococcus aureus (GC 3053) [2]: 16 µg/mL (≈ 10.2 µM)
- MIC Staphylococcus aureus (GC 4541) [2]: 8 µg/mL (≈ 5.12 µM)
- MIC Staphylococcus aureus (GC 4542) [2]: 16 µg/mL (≈ 10.2 µM)
- MIC Staphylococcus aureus-SMITH (GC 4543) ([2]; strain GC 4543): 8 µg/mL (≈ 5.12 µM)
- MIC Staphylococcus aureus (GC 4544) [2]: 16 µg/mL (≈ 10.2 µM)
- MIC Staphylococcus aureus (GC 4545) [2]: 8 µg/mL (≈ 5.12 µM)
- MIC Coagulase Negative Staphylococcus (GC 4547) ([2]; strain GC 4547): 4 µg/mL (≈ 2.56 µM)
- MIC Coagulase Negative Staphylococcus (GC 4548) ([2]; strain GC 4548): 4 µg/mL (≈ 2.56 µM)
- MIC Coagulase Negative Staphylococcus (GC 4549) ([2]; strain GC 4549): 4 µg/mL (≈ 2.56 µM)
- MIC Coagulase Negative Staphylococcus (GC 4551) ([2]; strain GC 4551): 8 µg/mL (≈ 5.12 µM)
- MIC Streptococcus agalactiae (GC 4564) [3]: 0.5 µg/mL (≈ 0.32 µM)
- MIC Streptococcus pneumoniae (ATCC 6301) [3]: 2 µg/mL (≈ 1.28 µM)
- MIC Streptococcus pneumoniae (GC 1894) [3]: 0.25 µg/mL (≈ 0.16 µM)
- MIC Streptococcus pneumoniae (GC 4565) [3]: 2 µg/mL (≈ 1.28 µM)
- MIC Streptococcus pyogenes (GC 4563) [3]: 1 µg/mL (≈ 0.64 µM)
- MIC Streptococcus pneumoniae (ATCC 6301) ([3]; strain ATCC 6301): 2 µg/mL (≈ 1.28 µM)
- MIC Streptococcus pneumoniae (GC 1894) ([3]; strain GC 1894): 0.25 µg/mL (≈ 0.16 µM)
- MIC Streptococcus pyogenes (GC 4563) ([3]; strain GC 4563): 1 µg/mL (≈ 0.64 µM)
- MIC Streptococcus agalactiae (GC 4564) ([3]; strain GC 4564): 0.5 µg/mL (≈ 0.32 µM)
- MIC Streptococcus pneumoniae (GC 4565) ([3]; strain GC 4565): 2 µg/mL (≈ 1.28 µM)
- MIC Escherichia coli (ATCC 25922) [4]: >128 µg/mL
- MIC Escherichia coli (GC 4559) [4]: >128 µg/mL
- MIC Escherichia coli (GC 4560) [4]: 4 µg/mL (≈ 2.56 µM)
SMILES: CC(C)=CCCC(C)=CCN=C1NCC(C(O)C2NC(=O)C(C(O)C3CNC(=N)N3)NC(=O)C(Cc3ccc(OC4OC(CO)C(OC5OC6COC7(OC6C(O)C5O)C5CC6CC(C5)CC7C6)C(O)C4O)cc3)NC(=O)C(C(C)c3ccccc3)NC(=O)CNC(=O)C(CO)NC2=O)N1C1OC(CO)C(O)C(O)C1O (stereo not drawn) [Example 82]
- MIC Staphylococcus haemolyticus (GC 4546) ([2]; strain GC 4546): 4 µg/mL (≈ 2.56 µM)

- MIC Enterococcus avium (GC 4558) ([1]; Enterococcus avium (GC 4558)): 2 µg/mL (≈ 1.31 µM)
- MIC Enterococcus faecalis (ATCC 29212) [1, 5]: 4 µg/mL (≈ 2.62 µM)
- MIC Enterococcus faecalis (GC 4552) [1, 6]: 4 µg/mL (≈ 2.62 µM)
- MIC Enterococcus faecalis (GC 4553) [1, 7]: 2 µg/mL (≈ 1.31 µM)
- MIC Enterococcus faecalis (GC 4554) [1, 8]: 4 µg/mL (≈ 2.62 µM)
- MIC Enterococcus faecalis (GC 6189) [1, 9]: 4 µg/mL (≈ 2.62 µM)
- MIC Enterococcus faecium (GC 2243) ([1]; Enterococcus faecium (GC 2243)): 2 µg/mL (≈ 1.31 µM)
- MIC Enterococcus faecium (GC 4556) ([1]; Enterococcus faecium (GC 4556)): 4 µg/mL (≈ 2.62 µM)
- MIC Enterococcus faecium (GC 4557) ([1]; Enterococcus faecium (GC 4557)): 1 µg/mL (≈ 0.655 µM)
- MIC Enterococcus avium (GC 4558) [1]: 2 µg/mL (≈ 1.31 µM)
- MIC Enterococcus faecalis (ATCC 29212) [1]: 4 µg/mL (≈ 2.62 µM)
- MIC Enterococcus faecalis (GC 2242) [1]: 4 µg/mL (≈ 2.62 µM)
- MIC Enterococcus faecalis (GC 2691) [1]: 4 µg/mL (≈ 2.62 µM)
- MIC Enterococcus faecalis (GC 3059) [1]: 4 µg/mL (≈ 2.62 µM)
- MIC Enterococcus faecalis (GC 4552) [1]: 4 µg/mL (≈ 2.62 µM)
- MIC Enterococcus faecalis (GC 4553) [1]: 2 µg/mL (≈ 1.31 µM)
- MIC Enterococcus faecalis (GC 4554) [1]: 4 µg/mL (≈ 2.62 µM)
- MIC Enterococcus faecalis (GC 6189) [1]: 4 µg/mL (≈ 2.62 µM)
- MIC Enterococcus faecium (GC 2243) [1]: 2 µg/mL (≈ 1.31 µM)
- MIC Enterococcus faecium (GC 4556) [1]: 4 µg/mL (≈ 2.62 µM)
- MIC Enterococcus faecium (GC 4557) [1]: 1 µg/mL (≈ 0.655 µM)
- MIC Enterococcus faecalis (GC 2242) ([1]; strain GC 2242): 4 µg/mL (≈ 2.62 µM)
- MIC Enterococcus faecalis (GC 2691) ([1]; strain GC 2691): 4 µg/mL (≈ 2.62 µM)
- MIC Enterococcus faecalis (GC 3059) ([1]; strain GC 3059): 4 µg/mL (≈ 2.62 µM)
- MIC Coagulase Negative Staphylococcus (GC 4547) [2]: 2 µg/mL (≈ 1.31 µM)
- MIC Coagulase Negative Staphylococcus (GC 4548) [2]: 1 µg/mL (≈ 0.655 µM)
- MIC Coagulase Negative Staphylococcus (GC 4549) [2]: 2 µg/mL (≈ 1.31 µM)
- MIC Coagulase Negative Staphylococcus (GC 4551) [2]: 2 µg/mL (≈ 1.31 µM)
- MIC Staphylococcus aureus-SMITH (GC 4543) [2]: 2 µg/mL (≈ 1.31 µM)
- MIC Staphylococcus aureus (ATCC 29213) [2]: 2 µg/mL (≈ 1.31 µM)
- MIC Staphylococcus aureus (GC 1131) [2]: 4 µg/mL (≈ 2.62 µM)
- MIC Staphylococcus aureus (GC 3051) [2]: 4 µg/mL (≈ 2.62 µM)
- MIC Staphylococcus aureus (GC 3053) [2]: 4 µg/mL (≈ 2.62 µM)
- MIC Staphylococcus aureus (GC 4541) [2]: 2 µg/mL (≈ 1.31 µM)
- MIC Staphylococcus aureus (GC 4542) [2]: 4 µg/mL (≈ 2.62 µM)
- MIC Staphylococcus aureus-SMITH (GC 4543) ([2]; strain GC 4543): 2 µg/mL (≈ 1.31 µM)
- MIC Staphylococcus aureus (GC 4544) [2]: 4 µg/mL (≈ 2.62 µM)
- MIC Staphylococcus aureus (GC 4545) [2]: 2 µg/mL (≈ 1.31 µM)
- MIC Coagulase Negative Staphylococcus (GC 4547) ([2]; strain GC 4547): 2 µg/mL (≈ 1.31 µM)
- MIC Coagulase Negative Staphylococcus (GC 4548) ([2]; strain GC 4548): 1 µg/mL (≈ 0.655 µM)
- MIC Coagulase Negative Staphylococcus (GC 4549) ([2]; strain GC 4549): 2 µg/mL (≈ 1.31 µM)
- MIC Coagulase Negative Staphylococcus (GC 4551) ([2]; strain GC 4551): 2 µg/mL (≈ 1.31 µM)
- MIC Streptococcus agalactiae (GC 4564) [3]: 0.25 µg/mL (≈ 0.164 µM)
- MIC Streptococcus pneumoniae (ATCC 6301) [3]: 0.5 µg/mL (≈ 0.328 µM)
- MIC Streptococcus pneumoniae (GC 1894) [3]: <0.12 µg/mL
- MIC Streptococcus pneumoniae (GC 4565) [3]: 0.25 µg/mL (≈ 0.164 µM)
- MIC Streptococcus pyogenes (GC 4563) [3]: 0.25 µg/mL (≈ 0.164 µM)
- MIC Streptococcus pneumoniae (ATCC 6301) ([3]; strain ATCC 6301): 0.5 µg/mL (≈ 0.328 µM)
- MIC Streptococcus pneumoniae (GC 1894) ([3]; strain GC 1894): <0.12 µg/mL
- MIC Streptococcus pyogenes (GC 4563) ([3]; strain GC 4563): 0.25 µg/mL (≈ 0.164 µM)
- MIC Streptococcus agalactiae (GC 4564) ([3]; strain GC 4564): 0.25 µg/mL (≈ 0.164 µM)
- MIC Streptococcus pneumoniae (GC 4565) ([3]; strain GC 4565): 0.25 µg/mL (≈ 0.164 µM)
- MIC Escherichia coli (ATCC 25922) [4]: 64 µg/mL (≈ 41.9 µM)
- MIC Escherichia coli (GC 4559) [4]: 32 µg/mL (≈ 21 µM)
- MIC Escherichia coli (GC 4560) [4]: 2 µg/mL (≈ 1.31 µM)
SMILES: CCCCCCCN1CC(C(O)C2NC(=O)C(C(O)C3CNC(=N)N3)NC(=O)C(Cc3ccc(OC4OC(CO)C(OC5OC6COC7(OC6C(O)C5O)C5CC6CC(C5)CC7C6)C(O)C4O)cc3)NC(=O)C(C(C)c3ccccc3)NC(=O)CNC(=O)C(CO)NC2=O)N(C2OC(CO)C(O)C(O)C2O)C1=N (stereo not drawn) [Example 83]
- MIC Staphylococcus haemolyticus (GC 4546) [2]: 2 µg/mL (≈ 1.31 µM)
- MIC Staphylococcus haemolyticus (GC 4546) ([2]; strain GC 4546): 2 µg/mL (≈ 1.31 µM)
